Experimental data published in a compilation of properties of binary mixtures (doi:10.1016/j.molliq.2022.119209).

Assay: xn = mol fraction of the nth substance listed
Conditions: 100 kPa

O + CC(N)C(=O)[O-].CCCC[n+]1ccn(C)c1C
x2 = 0
Conditions | viscosity [mPa·s]
288.15 K | 1.17
293.15 K | 1.03
303.15 K | 0.82
308.15 K | 0.74

O + CCCC[n+]1ccn(C)c1C.NCC(=O)[O-]
x2 = 0
Conditions | viscosity [mPa·s]
288.15 K | 1.17
293.15 K | 1.03
298.15 K | 0.91
303.15 K | 0.82
318.15 K | 0.61

O + N[C@@H]([C@H](O)C)C(=O)[O-].C(CCC)N1C(=[N+](C=C1)C)C
x2 = 0
Conditions | viscosity [mPa·s]
288.15 K | 1.17
298.15 K | 0.91
303.15 K | 0.82
308.15 K | 0.74
318.15 K | 0.61

CC(N)C(=O)[O-].CCCC[n+]1ccn(C)c1C + O
viscosity [mPa·s]
Conditions | x1 = 0.1003 | x1 = 0.2012 | x1 = 0.3009 | x1 = 0.4014 | x1 = 0.4938 | x1 = 0.5975 | x1 = 0.6987 | x1 = 0.7945 | x1 = 0.8965 | x1 = 1
288.15 K | 28.4 | 52 | 86 | 127 | 168 | 215 | 270 | 336 | 429 | 520
293.15 K | – | 40 | 64 | 95 | 126 | 161 | – | 244 | 307 | –
298.15 K | 17.1 | 30.5 | 48.9 | 72 | 96 | 123 | 151 | 183 | 226 | 268
303.15 K | 12.8 | 23.3 | 36.8 | 54 | 72 | 92 | 113 | 136 | 165 | 192
308.15 K | 10.6 | 19 | 30 | 44 | 58 | 75 | 92 | 110 | 131 | 150
313.15 K | 8.1 | 14.7 | 23 | 33.5 | 44.2 | 57 | – | 82 | 97 | 110
318.15 K | 6.7 | 12.1 | – | 27.5 | 36.3 | 46.7 | 57 | 67 | 77 | –

CCCC[n+]1ccn(C)c1C.NCC(=O)[O-] + O
viscosity [mPa·s]
Conditions | x1 = 0.0999 | x1 = 0.1982 | x1 = 0.3003 | x1 = 0.3904 | x1 = 0.4786 | x1 = 0.6 | x1 = 0.6999 | x1 = 0.798 | x1 = 0.9001 | x1 = 1
288.15 K | 25.2 | 40.3 | 63 | 92 | 125 | 180 | 232 | 298 | 390 | 480
293.15 K | 18.2 | 29.1 | 45.4 | – | 90 | 129 | 163 | 205 | 257 | 318
298.15 K | – | – | – | 49.1 | 67 | – | – | – | 178 | 218
303.15 K | 10.4 | 17.3 | 26.7 | 37.7 | 51 | 71 | 88 | 105 | – | 152
308.15 K | – | 13.1 | – | – | 38.3 | 53 | – | 77 | 90 | 109
313.15 K | 6.3 | 10.8 | 16.6 | – | 31.2 | 43.1 | 53 | 62 | – | 84
318.15 K | 5.7 | 9.6 | 14.7 | 20.5 | 27.5 | 38.1 | – | – | 61 | 72

CCCCn1cc[n+](C)c1C.C[C@@H](O)[C@H](N)C(=O)[O-] + O
viscosity [mPa·s]
Conditions | x1 = 0.0998 | x1 = 0.1919 | x1 = 0.2985 | x1 = 0.4004 | x1 = 0.4927 | x1 = 0.599 | x1 = 0.7003 | x1 = 0.8001 | x1 = 0.9012 | x1 = 1
288.15 K | 57 | 84 | 141 | 228 | – | 470 | 650 | 880 | 1181 | 1472
293.15 K | 40.4 | 61 | – | 164 | 236 | 331 | – | 600 | 780 | 960
298.15 K | 28.7 | 44 | 73 | 115 | 164 | 231 | – | – | 510 | 610
303.15 K | 18.1 | 28.7 | 47.4 | 74 | 105 | 145 | 191 | 245 | 310 | 363
308.15 K | 15.6 | – | 40.6 | – | 89 | – | 159 | – | 245 | 285
313.15 K | 9.8 | 15.8 | – | 40.6 | 57 | – | 100 | 122 | 145 | 167
318.15 K | 8 | 13.1 | – | – | – | 62 | – | – | 107 | 125
